Assays:
CCR2 / MCP1 = experiment: Effects of treatment on CCR2 expression and circulating MCP1; assay type: in vivo
From the text: The treatment methods described herein may involve treating patient subsets having elevated MCP1 (monocyte chemoattractant protein 1, or sometimes referred to as CCL2, which is CC chemokine receptor 2 ligand). CC chemokine receptor 2 (CCR2) is the receptor for MCP1. […] These effects are consistent with biological responses that correspond to reduced progression and/or at least partial reversal of cardiovascular plaque accumulation. That provides a basis for treating, e.g., slowing the progression, of arteriosclerosis and atherosclerosis. Such treatments would be effective in patients having a dyslipidemia such as hypercholesterolemia and/or hypertriglyceridemia with or without also having an arteriosclerosis condition such as atherosclerosis. Such patients will preferably have BMI and fasting plasma insulin levels as described in the embodiments described below (e.g., in embodiment 1, 9, 10, 17 or 19), examples or original claims, e.g., a BMI of ≧28 and insulin of ≧4 μU/mL. Any of these patients may also have hyperglycemia or overt diabetes. Patients with elevated MCP1 are also treatable for preventing or reducing the severity of cardiovascular disease, including myocardial infarction.

[1] = tested on: pre-diabetic hyperglycemic patients and patients having type 2 diabetes; experiment: Glucose clamp (M value) in 28-day clinical trial of oral capsules; assay type: in vivo, human
Procedure: Groups of pre-diabetic hyperglycemic patients and patients having type 2 diabetes were treated for 28 days with the experimental drug 17α-ethynylandrost-5-ene-3β,7β,17β-triol (oral capsules) or with placebo. […] Placebos were obtained with each treatment cohort based on protocol randomization of 2 treated:1 placebo. The pre-diabetic patients were obese (body mass index ≧29 kg/m^2) and glucose intolerant (fasting plasma glucose <126 mg/dL; 2-hr post prandial glucose 140-200 mg/dL after 75 g oral glucose). The diabetic patients were dosed with 10 mg/day for 28 days (n=6; cohort 6). […] Patients with an M value of <5 mg glucose/kg/min (M<5) were considered insulin resistant and patients with an M value of >5 mg glucose/kg/min (M>5) were considered insulin sensitive or essentially normal for whole body glucose metabolism.
The analysis of responders used standard analysis. Due to the cohort sizes and the ongoing basis of this clinical protocol, data for surrogates that corresponded to significance at p≦0.10 (trend) were considered positive evidence of surrogacy of the biomarker for the M<5 insulin resistant condition.

C#C[C@]1(O)CC[C@H]2[C@@H]3[C@@H](O)C=C4C[C@@H](O)CC[C@]4(C)[C@H]3CC[C@@]21C [17α-ethynylandrost-5-ene-3β,7β,17β-triol]
expression levels of CCR2 (CCR2 / MCP1; in vivo): decrease | MCP1 in circulation (CCR2 / MCP1; typically protein levels in serum, e.g. ELISA): trend to decrease | minimal effective dose ([1]; 28 days, lower degree of response than higher doses): 4 mg/day | change in M value ([1]; interim analysis, M<5, two patients treated with 20 mg/day): increased | change in M value ([1]; interim analysis, M<5 patients, 10 mg/day (5 mg twice per day) vs placebo, p=0.0286): significantly increased | change in M value ([1]; interim analysis, M<5 patients, pooled 10 mg/day or 20 mg/day vs placebo, p=0.0095): significantly increased | change in M value ([1]; interim analysis, M>5 patients, 10 mg/day, 20 mg/day or pooled vs placebo): no statistically significant difference | change in M value ([1]; interim analysis, overall protocol, 20 mg/day group, p=0.0823): trends to significance | change in M value ([1]; interim analysis, overall protocol, 'mg/day group', p=0.0513): trends to significance | change in M value ([1]; interim analysis, overall protocol, pooled patients, p=0.0278): significantly increased | M value (glucose control) ([1]; one pre-diabetic hyperglycemic patient, 28 days of dosing 4 mg/day): increased | effectiveness of treatment by M value subgroup ([1]; pre-diabetic hyperglycemic patients having M<5): most effective | change in M value ([1]; second interim analysis, M<5, 10 mg/day vs placebo, p=0.002): significantly increased | change in M value ([1]; second interim analysis, M<5, pooled 10 mg/day or 20 mg/day vs placebo, p=0.0007): highly significant positive change | change in M value ([1]; second interim analysis, M>5 patients, 10 mg/day, 20 mg/day or pooled vs placebo): no statistically significant difference | change in M value ([1]; second interim analysis, overall protocol, 10 mg/day group, p=0.04): significantly increased | change in M value ([1]; second interim analysis, overall protocol, 20 mg/day group, p=0.04): significantly increased | change in M value ([1]; second interim analysis, overall protocol, pooled patients, p=0.0109): significantly increased
